Experimental data from patent US8134015B2, “Compound inhibiting in vivo phosphorous transport and medicine containing the same” (Kyowa Hakko Kirin Co., Ltd., priority 2003, dated 2012).

These compounds were tested against T1, rat NaPi-2b (Rattus norvegicus, UniProt Q9JJ09) (assay: Sodium-dependent phosphate uptake of Xenopus oocytes which expressed NaPi-2b (32P)). Conditions: Xenopus oocytes expressing rat NaPi-2b, 32P radioactive phosphorus; read-out: IC50 (phosphate uptake inhibitory activity).
T1 construct: expressed in transfected cells; host or cells: Xenopus oocytes injected with cRNA
T1 sequence (Q9JJ09 1-695): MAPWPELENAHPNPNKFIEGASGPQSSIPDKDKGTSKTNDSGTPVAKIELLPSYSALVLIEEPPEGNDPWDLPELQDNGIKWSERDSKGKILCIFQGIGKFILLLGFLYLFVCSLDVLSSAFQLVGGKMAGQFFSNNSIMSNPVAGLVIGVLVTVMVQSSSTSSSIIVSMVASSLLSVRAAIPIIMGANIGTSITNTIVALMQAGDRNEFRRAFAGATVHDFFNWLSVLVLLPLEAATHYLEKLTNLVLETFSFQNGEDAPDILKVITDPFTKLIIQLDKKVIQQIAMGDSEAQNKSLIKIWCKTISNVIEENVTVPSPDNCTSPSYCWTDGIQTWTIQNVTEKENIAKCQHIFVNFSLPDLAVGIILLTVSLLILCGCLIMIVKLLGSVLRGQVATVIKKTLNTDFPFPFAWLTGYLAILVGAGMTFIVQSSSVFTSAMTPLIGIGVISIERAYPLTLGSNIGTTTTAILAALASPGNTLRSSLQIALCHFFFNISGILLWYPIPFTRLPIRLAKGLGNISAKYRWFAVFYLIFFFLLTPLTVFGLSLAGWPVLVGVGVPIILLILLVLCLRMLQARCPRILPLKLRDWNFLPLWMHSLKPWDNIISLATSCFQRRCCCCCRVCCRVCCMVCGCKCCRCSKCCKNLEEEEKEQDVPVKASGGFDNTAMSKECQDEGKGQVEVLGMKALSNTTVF
Assay type: cell-based
Method in brief: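 Inhibition at 300 μM and 100 μM was read off one inhibition curve of 32P phosphate uptake. Uptake was measured in Xenopus oocytes cultured 2 days after injection of cRNA for cloned rat NaPi-2b.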

Row | Structure (SMILES) | IC50 [µM]
1 | O=C(Nc1ccc(Br)cc1C(=O)N/N=C/c1ccc(Cl)c(C(F)(F)F)c1)c1ccccn1 [Compound 500, Pyridin-2-carboxylic acid [4-bromo-2-(4-chloro-3-trifluoromethyl-benzylidene-hydrazinocarbonyl)-phenyl]-amide] | 0.35
2 | CCN(CC)CCN(C)Cc1cccc(C(=O)Nc2ccc(N3CCCC3)cc2C(=O)N/N=C/c2ccc(OC)cc2)c1 [Compound 918, 3-{[(2-Diethylamino-ethyl)-methyl-amino]-methyl}-N-[2-(4-methoxy-benzylidene-hydrazinocarbonyl)-4-pyrrolidin-1-yl-phenyl]-benzamide] | 1.55
3 | Cc1cccc(/C=N/NC(=O)c2cc(Cl)ccc2NC(=O)c2cccc(CSCCS(=O)(=O)O)c2)c1 [Compound 692, 2-{3-[4-Chloro-2-(3-methyl-benzylidene-hydrazinocarbonyl)-phenylcarbamoyl]-benzylsulfanyl}-ethanesulfonic acid] | 99.4
4 | CN(CCO)Cc1cccc(C(=O)Nc2ccc(Cl)cc2C(=O)N/N=C/c2ccc(O)cc2)c1 [Compound 403, N-[4-Chloro-2-(4-hydroxy-benzylidene-hydrazinocarbonyl)-phenyl]-3-{[(2-hydroxy-ethyl)-methyl-amino]-methyl}-benzamide] | 26.7
5 | CCN(CC)CCNCc1cccc(C(=O)Nc2scc(C)c2C(=O)N/N=C/c2ccc(C)c(C)c2)c1 [Compound 581, 3-[(2-Diethylamino-ethylamino)-methyl]-N-[3-(3,4-dimethyl-benzylidene-hydrazinocarbonyl)-4-methyl-thiophen-2-yl]-benzamide] | < 3
6 | O=C(Nc1ccc(Br)cc1C(=O)N/N=C/c1cccc(F)c1)c1ccc(F)cc1 [Compound 105, N-[4-Bromo-2-(3-fluoro-benzylidene-hydrazinocarbonyl)-phenyl]-4-fluoro-benzamide] | 7.29
7 | CN(CCO)Cc1cccc(C(=O)Nc2ccc(Cl)cc2C(=O)N/N=C/c2cccc(O)c2)c1 [Compound 402, N-[4-Chloro-2-(3-hydroxy-benzylidene-hydrazinocarbonyl)-phenyl]-3-{[(2-hydroxy-ethyl)-methyl-amino]-methyl}-benzamide] | 14.1
8 | O=C(Nc1sc2c(c1C(=O)N/N=C/c1ccc(F)cc1)CCCC2)c1cccc(CN2CCN(CCO)CC2)c1 [Compound 623, N-[3-(4-Fluoro-benzylidene-hydrazinocarbonyl)-4,5,6,7-tetrahydro-benzo[b]thiophen-2-yl]-3-[4-(2-hydroxy-ethyl)-piperazin-1-ylmethyl]-benzamide] | < 3
9 | CCN(CC)CCNCc1ccc(C(=O)Nc2ccc(Br)cc2C(=O)N/N=C/c2ccc(F)cc2)cc1 [Compound 295, N-[4-Bromo-2-(4-fluoro-benzylidene-hydrazinocarbonyl)-phenyl]-4-[(2-diethylamino-ethylamino)-methyl]-benzamide] | 7.58
10 | CCN(CC)CCN(C)Cc1cccc(C(=O)Nc2ccc(OCCOCCOC)cc2C(=O)N/N=C/c2ccc(C)cc2)c1 [Compound 1034, 3-{[(2-Diethylamino-ethyl)-methyl-amino]-methyl}-N-[4-[2-(2-methoxy-ethoxy)-ethoxy]-2-(4-methyl-benzylidene-hydrazinocarbonyl)-phenyl]-benzamide] | 17.2
11 | CC(O)CN(Cc1cccc(C(=O)Nc2ccc(N3CCCC3=O)cc2C(=O)N/N=C/c2ccc(F)cc2)c1)CC(C)O (centres unmarked) [Compound 947, 3-{[Bis-(2-hydroxy-propyl)-amino]-methyl}-N-[2-(4-fluoro-benzylidene-hydrazinocarbonyl)-4-(2-oxo-pyrrolidin-1-yl)-phenyl]-benzamide] | 30.2
12 | O=C(Nc1ccc(Cl)cc1C(=O)N/N=C/c1ccc(F)cc1)c1ccccn1 [Compound 360, Pyridin-2-carboxylic acid [4-chloro-2-(4-fluoro-benzylidene-hydrazinocarbonyl)-phenyl]-amide] | 0.63
13 | O=C(Nc1ccc(Cl)cc1C(=O)N/N=C/c1cccc(F)c1)c1ccccn1 [Compound 359, Pyridin-2-carboxylic acid [4-chloro-2-(3-fluoro-benzylidene-hydrazinocarbonyl)-phenyl]-amide] | 7.1
14 | COc1ccc(/C=N/NC(=O)c2cc(N3CCOCC3)ccc2NC(=O)c2ccc(OC)c(OC)c2)cc1 [Compound 941, 3,4-Dimethoxy-N-[2-(4-methoxy-benzylidene-hydrazinocarbonyl)-4-morpholin-4-yl-phenyl]-benzamide] | 8.72
15 | CCN(CC)CCN(C)Cc1cccc(C(=O)Nc2ccc(N3CCCC3)cc2C(=O)N/N=C/c2ccc(Cl)c(C(F)(F)F)c2)c1 [Compound 917, N-[2-(4-Chloro-3-trifluoromethyl-benzylidene-hydrazinocarbonyl)-4-pyrrolidin-1-yl-phenyl]-3-{[(2-diethylamino-ethyl)-methyl-amino]-methyl}-benzamide] | 1.25
16 | O=C(Nc1ccc(Br)cc1C(=O)N/N=C/c1ccc(F)cc1)c1ccncc1 [Compound 167, N-[4-Bromo-2-(4-fluoro-benzylidene-hydrazinocarbonyl)-phenyl]-isonicotinamide] | 30.2
17 | CCN1CC(NCc2ccc(-c3nc4ccc(Br)cc4c(=O)n3/N=C/c3ccc(C)c(C)c3)cc2)CN1CC [Compound 749, 6-Bromo-2-{4-[(1,2-diethyl-pyrazolidin-4-ylamino)-methyl]-phenyl}-3-[(3,4-dimethyl-benzylidene)-amino]-3H-quinazolin-4-one] | 9.05
18 | O=C(Nc1ccc(Br)cc1C(=O)N/N=C/c1cccc(F)c1)c1ccc(CNCCCN(CCO)CCO)cc1 [Compound 301, 4-({3-[Bis-(2-hydroxy-ethyl)-amino]-propylamino}-methyl)-N-[4-bromo-2-(3-fluoro-benzylidene-hydrazinocarbonyl)-phenyl]-benzamide] | 15.2
19 | CCN(CC)CCN(CCN(CC)CC)Cc1cccc(C(=O)Nc2ccc(N3CCCCC3)cc2C(=O)N/N=C/c2cccc(F)c2)c1 [Compound 908, 3-{[Bis-(2-diethylamino-ethyl)-amino]-methyl}-N-[2-(3-fluoro-benzylidene-hydrazinocarbonyl)-4-piperidin-1-yl-phenyl]-benzamide] | 13.2
20 | CCN(CC)CCNCc1ccc(C(=O)Nc2ccc(Br)cc2C(=O)N/N=C/c2cccc(F)c2)cc1 [Compound 296, N-[4-Bromo-2-(3-fluoro-benzylidene-hydrazinocarbonyl)-phenyl]-4-[(2-diethylamino-ethylamino)-methyl]-benzamide] | 1.45
21 | COc1ccc(/C=N/NC(=O)c2cc(N3CCSCC3)ccc2NC(=O)c2cccc(CSCCO)c2)cc1 [Compound 928, 3-(2-Hydroxy-ethylsulfanylmethyl)-N-[2-(4-methoxy-benzylidene-hydrazinocarbonyl)-4-thiomorpholin-4-yl-phenyl]-benzamide] | < 1
22 | Cc1ccc(/C=N/NC(=O)c2cc(Br)ccc2NC(=O)c2ccc(CN3CCC(CCO)CC3)cc2)cc1C [Compound 340, N-[4-Bromo-2-(3,4-dimethyl-benzylidene-hydrazinocarbonyl)-phenyl]-4-[4-(2-hydroxy-ethyl)-piperidin-1-ylmethyl]-benzamide] | 8.41

Same assay, conditions: phosphate uptake, oocytes expressing rat NaPi-2b; 300 μM, determined from inhibition curve

Row | Structure (SMILES) | inhibition at 300 µM [%]
23 | Cc1cccc(C=NNC(=O)c2cc(Br)ccc2NC(=O)c2ccc(C(C)(C)C)cc2)c1 [Compound 248, N-[4-Bromo-2-(3-methyl-benzylidene-hydrazinocarbonyl)-phenyl]-4-tert-butyl-benzamide] | 30.3
